This assay addresses T1, human factor Xa (Homo sapiens, UniProt P00742).
T1 construct: 25 μL human factor Xa (32 nM in 0.03 M tris, 0.15 M NaCl, 1 mg/mL HSA); purchased Enzyme Research Laboratories (South Bend, Ind., USA)
In words: Enzyme inhibition assay (apparent Kass, chromogenic substrate hydrolysis). Type of assay: biochemical. Particulars: apparent association constant, human factor Xa 3.2 nM, BzIleGluGlyArgpNA substrate; 1/appKass=app Ki. Here is the method: Human factor Xa and human thrombin are purchased from Enzyme Research Laboratories (South Bend, Ind., USA). Other proteases are from other commercial sources. Chromogenic para-nitroanilide peptide protease substrates are purchased from Midwest Biotech (Fishers, Ind., USA).
The binding affinities for human factor Xa are measured as apparent association constants (Kass) derived from protease inhibition kinetics as described previously.^a,b,c,d The apparent Kass values are obtained using automated (BioMek-1000) dilutions of inhibitors (Kass determinations are performed in triplicate at each of four-eight inhibitor concentrations) into 96-well plates and chromogenic substrate hydrolysis rates determined at 405 nm using a Thermomax plate reader from Molecular Devices (San Francisco). […] [Free Xa] and [bound Xa] are determined from linear standard curves on the same plate by use of SoftmaxPro software for each inhibitor concentration and apparent Kass calculated for each inhibitor concentration which produced hydrolysis inhibition between 20% and 80% of the control (3.2 nM factor Xa): apparent Kass=[E:I]/[Ef][If]=[Eb]/[Ef][I^o−I^b]. […] The variability of mean apparent Kass values determined at the single substrate concentration is +/−15%. […]

T1 sequence (P00742 235-488 limits assumed): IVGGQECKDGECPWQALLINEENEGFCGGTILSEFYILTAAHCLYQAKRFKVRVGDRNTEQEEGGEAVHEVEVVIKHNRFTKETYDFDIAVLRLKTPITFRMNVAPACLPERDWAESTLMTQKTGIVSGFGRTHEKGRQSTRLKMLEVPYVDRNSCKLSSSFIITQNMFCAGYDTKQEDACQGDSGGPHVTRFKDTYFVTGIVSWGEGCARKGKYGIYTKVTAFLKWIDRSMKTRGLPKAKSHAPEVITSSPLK
T1 sequence (P00742 41-179 partner limits assumed): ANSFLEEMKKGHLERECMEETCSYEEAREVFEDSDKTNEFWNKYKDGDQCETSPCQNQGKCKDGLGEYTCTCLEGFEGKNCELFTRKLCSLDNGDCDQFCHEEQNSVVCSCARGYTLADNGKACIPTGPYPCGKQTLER

Regarding `COc1ccc(C(=O)NC(C(=O)N2CCC(CN(C)c3ccncc3)CC2)c2ccccc2Cl)cc1.Cl` (racemic) [Example 7], the Kass is about 1.22e+08 L/mol.
